Data as given in ChEMBL document CHEMBL1122266, “Ring-substituted 1,2-dialkylated 1,2-bis(hydroxyphenyl)ethanes. 1. Synthesis and estrogen receptor binding affinity of 2,2'- and 3,3'-disubstituted hexestrols” (J Med Chem, 1983).
Where “and” joins values, the source holds several entries; their conditions need not be identical. Equal values may be shown once.

Columns and labels:
[1] = target: Estrogen receptor (Bos taurus) (UniProt Q9XSB5+P49884); assay: Relative binding affinity for calf uterine estrogen receptor by 17-beta-[3H]-estradiol competition.; type: protein assay
[2] = target: T1, Estrogen receptor (Mus musculus) (UniProt O08537+P19785); assay: Estrogenic activity in uterotrophic assay in mice at 1000 ug/day; type: functional
[3] = target: T1, Estrogen receptor (Mus musculus); assay: Estrogenic activity in uterotrophic assay in mice at 10 ug/day; type: functional
[4] = target: T1, Estrogen receptor (Mus musculus); assay: Estrogenic activity in uterotrophic assay in mice at 100 ug/day; type: functional
[5] = target: T1, Estrogen receptor (Mus musculus); assay: Estrogenic activity in uterotrophic assay in mice at 0 ug/day; type: functional
[6] = target: T1, Estrogen receptor (Mus musculus); assay: Estrogenic activity in uterotrophic assay in mice at 0.4 ug/day with estrone; type: functional
[7] = target: T1, Estrogen receptor (Mus musculus); assay: Estrogenic activity in uterotrophic assay in mice at 1 ug/day; type: functional
[8] = target: T1, Estrogen receptor (Mus musculus); assay: Inhibition of anti-uterotrophic activity in mice at 5 ug/day (%inhibition=100-(E S,T-EV)x100); type: functional
[9] = target: T1, Estrogen receptor (Mus musculus); assay: Inhibition of anti-uterotrophic activity in mice at 25 ug/day (%inhibition=100-(E S,T-EV)x100); type: functional
[10] = target: T1, Estrogen receptor (Mus musculus); assay: Anti-uterotrophic activity in mice at 25 ug/day
[11] = target: T1, Estrogen receptor (Mus musculus); assay: Anti-uterotrophic activity in mice at 0 ug/day; type: functional
[12] = target: T1, Estrogen receptor (Mus musculus); assay: Estrogenic activity in uterotrophic assay in mice at 50 ug/day; type: functional
[13] = target: T1, Estrogen receptor (Mus musculus); assay: Anti-uterotrophic activity in mice at 250 ug/day; type: functional
[14] = target: T1, Estrogen receptor (Mus musculus); assay: Inhibition of anti-uterotrophic activity in mice at 100 ug/day (%inhibition=100-(E S,T-EV)x100); type: functional
[15] = target: T1, Estrogen receptor (Mus musculus); assay: Estrogenic activity in uterotrophic assay in mice at 500 ug/day
[16] = target: T1, Estrogen receptor (Mus musculus); assay: Anti-uterotrophic activity in mice at 5 ug/day; type: functional
[17] = target: T1, Estrogen receptor (Mus musculus); assay: Estrogenic activity in uterotrophic assay in mice at 250 ug/day; type: functional
[18] = target: T1, Estrogen receptor (Mus musculus); assay: Estrogenic activity in uterotrophic assay in mice at 2 ug/day; type: functional
[19] = target: T1, Estrogen receptor (Mus musculus); assay: Anti-uterotrophic activity in mice at 100 ug/day; type: functional
[20] = target: T1, Estrogen receptor (Mus musculus); assay: Inhibition of anti-uterotrophic activity in mice at 250 ug/day (%inhibition=100-(E S,T-EV)x100); type: functional

T1 sequence (O08537 whole entry, looked up): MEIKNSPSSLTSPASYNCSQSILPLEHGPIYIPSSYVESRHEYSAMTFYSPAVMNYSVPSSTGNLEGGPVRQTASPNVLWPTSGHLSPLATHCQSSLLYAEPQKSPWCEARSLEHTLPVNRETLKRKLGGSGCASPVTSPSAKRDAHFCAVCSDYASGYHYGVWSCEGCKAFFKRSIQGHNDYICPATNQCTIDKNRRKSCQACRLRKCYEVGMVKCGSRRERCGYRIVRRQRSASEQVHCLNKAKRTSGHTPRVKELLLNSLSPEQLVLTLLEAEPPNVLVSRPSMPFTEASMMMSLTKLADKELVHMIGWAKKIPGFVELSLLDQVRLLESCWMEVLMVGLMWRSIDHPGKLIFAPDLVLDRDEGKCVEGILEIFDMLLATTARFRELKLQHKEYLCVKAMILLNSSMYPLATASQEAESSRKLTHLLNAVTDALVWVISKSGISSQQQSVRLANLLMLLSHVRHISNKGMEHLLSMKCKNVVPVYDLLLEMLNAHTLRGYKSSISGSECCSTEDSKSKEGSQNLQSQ
T1 sequence (P19785 whole entry, looked up): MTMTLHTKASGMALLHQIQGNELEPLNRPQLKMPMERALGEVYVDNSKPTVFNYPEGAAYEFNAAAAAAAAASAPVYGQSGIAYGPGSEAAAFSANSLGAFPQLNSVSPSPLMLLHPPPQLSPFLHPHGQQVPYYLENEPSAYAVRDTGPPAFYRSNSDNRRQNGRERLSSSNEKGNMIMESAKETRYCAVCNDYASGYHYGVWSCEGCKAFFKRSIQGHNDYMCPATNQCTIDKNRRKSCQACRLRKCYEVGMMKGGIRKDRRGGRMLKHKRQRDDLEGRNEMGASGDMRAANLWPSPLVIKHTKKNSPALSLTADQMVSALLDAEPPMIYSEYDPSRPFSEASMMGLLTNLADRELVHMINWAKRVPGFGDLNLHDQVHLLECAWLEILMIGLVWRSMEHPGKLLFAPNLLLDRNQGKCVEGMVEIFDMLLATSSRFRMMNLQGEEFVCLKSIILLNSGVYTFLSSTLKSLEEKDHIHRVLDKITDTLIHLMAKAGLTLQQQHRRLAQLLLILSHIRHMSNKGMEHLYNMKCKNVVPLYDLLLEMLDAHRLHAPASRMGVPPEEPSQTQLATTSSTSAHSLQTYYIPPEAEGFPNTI

Row | Compound | relative binding affinity (RBA) [1] | Effect [3] | Effect [5] | Effect [6] | other results
1 | CCC(c1ccc(O)c(COC)c1)C(CC)c1ccc(O)c(COC)c1 (stereo not given) | 0.55 |  |  |  | 
2 | CCC(c1ccc(O)c([N+](=O)[O-])c1)C(CC)c1ccc(O)c([N+](=O)[O-])c1 (stereo not given) | 0.14 |  |  |  | 
3 | CCC(c1ccc(O)cc1C)C(CC)c1ccc(O)cc1C (stereo not given) | 8.5 | 36.6 mg 100g-1 | 16.9 mg 100g-1 | 43.9 mg 100g-1 | Effect [2]: 32.6 mg 100g-1; Effect [4]: 38.4 mg 100g-1; Effect [7]: 46.3 mg 100g-1
4 | CCC(c1ccc(O)cc1F)C(CC)c1ccc(O)cc1F (stereo not given) | 6.5 | 39 mg 100g-1 | 16.9 mg 100g-1 | 43.9 mg 100g-1 | Effect [2]: 30.5 mg 100g-1; Effect [4]: 34.3 mg 100g-1; Effect [7]: 47.6 mg 100g-1
5 | CCC(c1ccc(O)cc1Br)C(CC)c1ccc(O)cc1Br (stereo not given) | 1.8 |  |  |  | 
6 | CCOCc1cc(C(CC)C(CC)c2ccc(O)c(COCC)c2)ccc1O (stereo not given) | 0.18 |  |  |  | 
7 | CCc1cc(O)ccc1C(CC)C(CC)c1ccc(O)cc1CC (stereo not given) | 3.7 |  |  |  | 
8 | CC[C@H](c1ccc(O)cc1)[C@@H](CC)c1ccc(O)cc1 | 27 |  |  |  | 
9 | CCC(c1ccc(O)cc1O)C(CC)c1ccc(O)cc1O (stereo not given) | 32 | 41.6 mg 100g-1 | 16.4 mg 100g-1 | 51.4 mg 100g-1 | Effect [7]: 53.6 mg 100g-1
10 | CCC(c1ccc(O)c(CO)c1)C(CC)c1ccc(O)c(CO)c1 (stereo not given) | 0.71 |  |  |  | 
11 | CCC(c1ccc(O)c(CN(C)C)c1)C(CC)c1ccc(O)c(CN(C)C)c1 (stereo not given) | 0.04 |  |  |  | 
12 | CCC(c1ccc(O)cc1Cl)C(CC)c1ccc(O)cc1Cl (stereo not given) | 2.2 |  |  |  | 
13 | CCC(c1ccc(O)c(C(C)=O)c1)C(CC)c1ccc(O)c(C(C)=O)c1 (stereo not given) | < 0.01 |  |  |  | 
14 | CCC(c1ccc(O)c(N(C)C)c1)C(CC)c1ccc(O)c(N(C)C)c1 (stereo not given) | < 0.01 |  |  |  | 
15 | CCc1cc(C(CC)C(CC)c2ccc(O)c(CC)c2)ccc1O (stereo not given) | 1.2 |  |  |  | 

Continued, in another order:

Row | relative binding affinity (RBA) [1] | Effect [3] | Effect [5] | Effect [6] | Compound | other results
16 | 0.25 |  |  |  | CCC(c1ccc(O)c(Br)c1)C(CC)c1ccc(O)c(Br)c1 (stereo not given) | 
17 | 16 | 43.4 mg 100g-1 | 10 mg 100g-1 | 44.9 mg 100g-1 | CCC(c1ccc(O)c(F)c1)C(CC)c1ccc(O)c(F)c1 (stereo not given) | Effect [2]: 38.8 mg 100g-1; Effect [4]: 40.4 mg 100g-1; Effect [7]: 50.7 mg 100g-1
18 | 1.6 |  |  |  | CCC(c1ccc(O)c(Cl)c1)C(CC)c1ccc(O)c(Cl)c1 (stereo not given) | 
19 | 5.6 | 24.3 mg 100g-1 | 16.9 mg 100g-1 | 50.4 mg/100 g | CCC(c1ccc(O)c(N)c1)C(CC)c1ccc(O)c(N)c1 (stereo not given) | Effect [2]: 45.6 mg 100g-1; inhibition [8]: 78%; Effect [4]: 44.7 mg/100 g; inhibition [9]: 0%; Effect [10]: 34.6 mg 100g-1; Effect [11]: 50.4 mg 100g-1 and 19.4 mg 100g-1; Effect [7]: 23.3 mg 100g-1
20 | 20 | 34.7 mg 100g-1 | 15.4 mg 100g-1 | 54.3 mg 100g-1 | CCC(c1ccc(O)c(O)c1)C(CC)c1ccc(O)c(O)c1 (stereo not given) | Effect [12]: 39.1 mg 100g-1; Effect [13]: 43.6 mg 100g-1; inhibition [8]: 59%; inhibition [14]: 13%; inhibition [9]: 20%; Effect [15]: 49.8 mg 100g-1; Effect [16]: 24.1 mg 100g-1; Effect [10]: 37 mg 100g-1; Effect [17]: 50.1 mg 100g-1; Effect [18]: 24.6 mg 100g-1; Effect [19]: 39.2 mg 100g-1; inhibition [20]: 0%
21 | 8.1 | 40 mg 100g-1 | 10 mg 100g-1 | 44.9 mg 100g-1 | CCC(c1ccc(O)c(C)c1)C(CC)c1ccc(O)c(C)c1 (stereo not given) | Effect [2]: 34 mg 100g-1; Effect [4]: 33.8 mg 100g-1; Effect [7]: 48.7 mg 100g-1
22 | 0.17 |  |  |  | CCC(c1ccc(O)c(I)c1)C(CC)c1ccc(O)c(I)c1 (stereo not given) | 
